Experimental findings from patent publication US5332733A, “Heterocyclically substituted piperazinoakylbenzoxazine and piperazinoalkylbenzothiazine compounds, processes for preparing them, and medicaments containing them” (Kali-Chemie Pharma GmbH, priority 1990, dated 1994) are described below.

Like-named read-outs stand apart in the source and are kept apart here.

The test deals with T1, histamine-(H1)-receptor (Cavia porcellus, UniProt P31389).
T1 construct: Segments of the ileum 1.5 cm long from Dunkin Hartley guinea pigs; from tissue; host or cells: isolated ileum of Dunkin Hartley guinea pigs
T1 sequence (P31389 whole entry): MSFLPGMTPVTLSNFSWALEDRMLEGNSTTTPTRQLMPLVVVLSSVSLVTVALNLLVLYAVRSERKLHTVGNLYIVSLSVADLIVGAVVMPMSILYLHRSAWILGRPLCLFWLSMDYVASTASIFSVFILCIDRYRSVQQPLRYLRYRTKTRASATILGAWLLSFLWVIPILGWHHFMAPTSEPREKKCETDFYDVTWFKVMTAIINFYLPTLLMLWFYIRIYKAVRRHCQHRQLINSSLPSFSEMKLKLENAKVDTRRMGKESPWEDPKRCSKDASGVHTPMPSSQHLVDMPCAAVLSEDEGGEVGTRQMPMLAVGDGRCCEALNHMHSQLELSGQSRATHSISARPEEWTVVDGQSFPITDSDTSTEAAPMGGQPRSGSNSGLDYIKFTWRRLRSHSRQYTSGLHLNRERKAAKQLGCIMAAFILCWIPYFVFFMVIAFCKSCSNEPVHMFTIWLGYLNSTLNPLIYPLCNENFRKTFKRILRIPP
Nature of the test: Histamine-(H1)-receptor antagonism in vitro, histamine-induced contractions of isolated ileum. Format: cell-based, guinea pig (Dunkin Hartley). Conditions: test substance 10^-6 mole/l, histamine 5 × 10^-6 mole/l. Here is the method:
3. Investigation of Anti-Histamine-(H1) Effect Based on Histamine-(H1)-Receptor Antagonism In Vitro
To investigate the histamine-(H1)-receptor antagonism of the test substances, the inhibiting effect of the substances on histamine-induced contractions of the smooth muscle was determined in vitro on the isolated organ. Isolated strips of organ from the ileum are suitable for this purpose. In an organ bath of physiological saline solution the smooth muscle strips react to the addition of histamine by contracting. […] The extent of regression of the contraction is an indication of the anti-histamine-(H1) activity of the compounds. The investigation was carried out analogously to the method originally described by Magnus (Pfluegers Arch. 102, 123 (1904)).
Procedure for determining the smooth muscle contraction inhibiting effect on isolated guinea pig ileum induced by a 5×10^-6 molar histamine concentration
Segments of the ileum 1.5 cm long from Dunkin Hartley guinea pigs having a body weight of 300 500 g were used for the test. Each strip was placed in an organ bath of 10 ml of physiological saline solution according to Krebs-Henseleit and attached to a conventional apparatus for isotonic measurement of changes in length of the ileum strips (automated Celaster measuring apparatus), so that the tissue was under 1 g of tension. The bath was kept at a pH of 7.4 and gassed with a mixture of 5% CO2 and 95% O2. After an equilibration phase, an isotonic contraction of the tissue was induced by adding histamine in a final concentration of 5×10^-6 mole/liter and washing it out again after a contact time of 30 seconds. Only tissues samples from which three reproducible contractions were obtained at 10 minute intervals were used in the subsequent test. The test substances were then added in a final concentration of 10^-6 mole/liter, and after 30 seconds contact time histamine was again added up to a concentration of 5×10^-6 mole/liter. The resulting contractions were measured over 30 seconds. The tissue was then washed several times over a period of 10 minutes. Histamine was then added again to stimulate a contraction. The resulting contractions were again measured over 30 seconds. The difference between the amplitude of the contraction obtained by histamine addition alone and the amplitude of the contraction obtained in the presence of the test substance was determined and expressed in terms of % inhibition.
The inhibiting effects on the contractions induced by histamine 30 seconds after administration of the test substance and on the contractions induced by the addition of histamine 10 minutes later are listed in the table.

Setting [1] is: 0.5 min, after 30 seconds, read-out: % inhibition of histamine-induced ileum contractions after 30 seconds.
The mark [2] stands for this setting: 10 min, after 10 minutes (after washing), read-out: % inhibition of histamine-induced ileum contractions after 10 minutes.

On to `Cc1ccnc(N2CCN(CCCCC3Oc4ccccc4NC3=O)CC2)c1` (stereo not drawn) [Example 7], for which the inhibition at 1 µM by setting is: under setting [1], 85%; under setting [2], 74%.
Take `Cc1ccnc(N2CCN(CCCC3Sc4ccccc4NC3=O)CC2)c1` (stereo not drawn) [Example 8]: the inhibition at 1 µM reads like this: under setting [1], 42%; under setting [2], 5%.
For the compound `Cc1ccnc(N2CCN(CCCC3Sc4ccccc4NC3=S)CC2)c1` (stereo not drawn) [Example 11], the inhibition at 1 µM under setting [1] is 32% and the inhibition at 1 µM under setting [2] stood at 35%.
